Experimental data reported in patent US7776862B2, “Pyridyl and phenyl substituted piperazine-piperidines with CXCR3 antagonist activity” (Schering Corporation, priority 2005, dated 2010).

What follows are compounds tested against T1, human CXCR3 (N-delta 4) (Homo sapiens, UniProt P49682) (assay: Human CXCR3 (N-delta 4) scintillation proximity assay (SPA), [125I] IP-10 binding). Details: IC50 rating; Ba/F3-hCXCR3 (N-delta 4) membranes, 25 pM [125I] IP-10.
T1 construct: CD8 leader; Flag tag; expressed in transfected cells; membranes used
T1 sequence (P49682 5-368 limits assumed): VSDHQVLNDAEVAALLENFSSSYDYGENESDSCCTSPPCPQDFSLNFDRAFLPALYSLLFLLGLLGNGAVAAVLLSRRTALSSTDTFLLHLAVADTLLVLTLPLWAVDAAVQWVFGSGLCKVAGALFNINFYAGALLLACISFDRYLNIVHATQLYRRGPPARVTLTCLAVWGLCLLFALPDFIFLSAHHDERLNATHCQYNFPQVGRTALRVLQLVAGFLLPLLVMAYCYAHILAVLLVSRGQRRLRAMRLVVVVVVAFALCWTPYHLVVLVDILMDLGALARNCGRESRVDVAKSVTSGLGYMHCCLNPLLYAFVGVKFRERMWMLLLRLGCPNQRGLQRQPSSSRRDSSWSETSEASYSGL
Procedure, shortened: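 IP-10 and compound titrations added together. The receptor source was SPA beads bearing membranes from Ba/F3 cells transfected with human CXCR3 (N-delta 4) carrying a CD8 leader and Flag tag.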

Row | SMILES | IC50
1 | C[C@H]1CN(c2ncc(C(=O)N3CCC3)cc2Cl)CCN1C1CCN(Cc2ccc(Cl)cc2)CC1 [compound 348] | > 100 nM
2 | CNC(=O)c1cnc(N2CCN(C3CCN(Cc4ccccc4Cl)CC3)[C@@H](C)C2)c(Cl)c1 [compound 349] | > 100 nM
3 | CC[C@H]1CN(c2ncc(C(=O)N=C(N)N)cc2Cl)CCN1C1CCN(Cc2ccc(Br)cc2F)CC1 [compound 350] | > 100 nM
4 | O=C(NCc1ccc(F)c(F)c1)c1cnc(N2CCN(C3CCN(C(=O)c4ccc(Cl)c(Cl)c4)CC3)CC2)c(Cl)c1 [compound 351] | > 100 nM
5 | CNC(=O)c1cnc(N2C[C@H](C)N(C3CCN(Cc4ccc(Cl)cc4F)CC3)C[C@H]2C)c(Cl)c1 [compound 352] | > 100 nM
6 | O=C(Nc1ccc(Cl)cn1)c1cnc(N2CCN(C3CCN(Cc4ccc(Cl)cc4)CC3)CC2)c(Cl)c1 [compound 353] | > 100 nM
7 | C=CCNc1c(C(N)=O)cnc(N2CCN(C3CCN(Cc4ccc(Cl)cc4F)CC3)[C@@H](CC)C2)c1Cl [compound 357] | > 100 nM
8 | CNC(=O)c1cnc(N2CCN(C3CCN(C(=O)c4cc5cc(Cl)ccc5[nH]4)CC3)[C@@H](C)C2)c(Cl)c1 [compound 361] | > 100 nM
9 | CNC(=O)c1cnc(N2CCN(C3CCN(Cc4c(F)cccc4F)CC3)[C@@H](C)C2)c(Cl)c1 [compound 366] | > 100 nM
10 | CCNC(=O)NCc1cnc(N2CCN(C3CCN(Cc4ccc(Cl)cc4F)CC3)[C@@H](CC)C2)c(Cl)c1 [compound 368] | < 25 nM
11 | CC[C@H]1CN(c2ncc(CNC(=O)NC(C)C)cc2Cl)CCN1C1CCN(Cc2ccc(Cl)cc2F)CC1 [compound 370] | < 25 nM
12 | CC[C@H]1CN(c2ncc(CNC(=O)NCC(F)(F)F)cc2Cl)CCN1C1CCN(Cc2ccc(Br)cc2F)CC1 [compound 371] | < 25 nM
13 | CC[C@H]1CN(c2ncc(CNC(=S)NC3CC3)cc2Cl)CCN1C1CCN(Cc2ccc(Cl)cc2F)CC1 [compound 374] | < 25 nM
14 | CC[C@H]1CN(c2ncc(CNC(N)=O)cc2Cl)CCN1C1CCN(Cc2ccc(Br)cc2F)CC1 [compound 376] | < 25 nM
15 | CC[C@H]1CN(c2ncc(CNC(=O)NC)cc2Cl)CCN1C1CCN(Cc2ccc(Cl)cc2F)CC1 [compound 377] | < 25 nM
16 | CC[C@H]1CN(c2ncc(CNC(N)=O)cc2Cl)CCN1C1CCN(Cc2ccc(Cl)cc2F)CC1 [compound 379] | < 25 nM

Row | SMILES | IC50
17 | CCNC(=O)OCc1cnc(N2CCN(C3CCN(Cc4ccc(Cl)cc4F)CC3)[C@@H](CC)C2)c(Cl)c1 [compound 382] | < 25 nM
18 | CC[C@H]1CN(c2ncc(CNS(=O)(=O)N(C)C)cc2Cl)CCN1C1CCN(Cc2ccc(Br)cc2F)CC1 [compound 384] | < 25 nM
19 | CCNC(=O)NCc1cnc(N2CCN(C3CCN(Cc4ccc(Cl)cc4)CC3)[C@@H](C)C2)c(Cl)c1 [compound 385] | < 25 nM
20 | CC[C@H]1CN(c2ncc(CNS(=O)(=O)CC)cc2Cl)CCN1C1CCN(Cc2ccc(Cl)cc2F)CC1 [compound 386] | < 25 nM
21 | CC[C@H]1CN(c2ncc(CNC(C)=O)cc2Cl)CCN1C1CCN(Cc2ccc(Cl)cc2F)CC1 [compound 387] | < 25 nM
22 | CC[C@H]1CN(c2ncc(CNS(=O)(=O)N(C)C)cc2Cl)CCN1C1CCN(Cc2ccc(Cl)cc2F)CC1 [compound 391] | < 25 nM
23 | CC[C@H]1CN(c2ncc(CNC)cc2Cl)CCN1C1CCN(Cc2ccc(Cl)cc2F)CC1 [compound 393] | < 25 nM
24 | CC[C@H]1CN(c2ncc(CNC(=N)N)cc2Cl)CCN1C1CCN(Cc2ccc(Cl)cc2F)CC1 [compound 394] | < 25 nM
25 | CC[C@H]1CN(c2ncc(CNC3CC3)cc2Cl)CCN1C1CCN(Cc2ccc(Cl)cc2F)CC1 [compound 395] | < 25 nM
26 | CCNC(=O)NCc1cnc(N2CCN(C3CCN(Cc4ccc(Cl)cc4)CC3)[C@@H](CC)C2)c(Cl)c1 [compound 397] | < 25 nM
27 | CC[C@H]1CN(c2ncc(CN/C(=N\C#N)NC)cc2Cl)CCN1C1CCN(Cc2ccc(Cl)cc2F)CC1 [compound 403] | < 25 nM
28 | CC[C@H]1CN(c2ncc(CNc3nccs3)cc2Cl)CCN1C1CCN(Cc2ccc(Cl)cc2F)CC1 [compound 407] | < 25 nM
29 | CC[C@H]1CN(c2ncc(CNC(=O)N(C(=O)NC3CC3)C3CC3)cc2Cl)CCN1C1CCN(Cc2ccc(Br)cc2F)CC1 [compound 408] | < 25 nM
30 | CC[C@H]1CN(c2ncc(CNC(=O)N(C)C)cc2Cl)CCN1C1CCN(Cc2ccc(Cl)cc2F)CC1 [compound 410] | 25 to 100 nM
31 | CCC(=O)c1cnc(N2CCN(C3CCN(Cc4ccc(Cl)cc4F)CC3)[C@@H](CC)C2)c(Cl)c1 [compound 411] | 25 to 100 nM
32 | CC[C@H]1CN(c2ncc(CNc3c(NC4CC4)c(=O)c3=O)cc2Cl)CCN1C1CCN(Cc2ccc(Br)cc2F)CC1 [compound 412] | 25 to 100 nM

Now from value to compound:

Row | IC50 | SMILES
33 | > 100 nM | CC[C@H]1CN(c2ncc(C(=O)NNC(N)=O)cc2Cl)CCN1C1CCN(Cc2ccc(Cl)cc2F)CC1 [compound 347]
34 | > 100 nM | CNC(=O)c1cnc(N2CCN(C3CCN(Cc4ccc(F)cc4S(=O)(=O)N(C)c4ccc(Cl)cc4)CC3)[C@@H](C)C2)c(Cl)c1 [compound 354]
35 | > 100 nM | C[C@H]1CN(c2ncc(C(=O)N3CCCCC3)cc2Cl)CCN1C1CCN(Cc2ccc(Cl)cc2)CC1 [compound 355]
36 | > 100 nM | CC[C@H]1CN(c2ncc(C(=O)NC)cc2Cl)CCN1C1CCN(C2c3ccc(Cl)cc3CCc3cccnc32)CC1 (some centres unmarked) [compound 356]
37 | > 100 nM | O=C(NCc1cccnc1)c1cnc(N2CCN(C3CCN(Cc4ccc(Cl)cc4)CC3)CC2)c(Cl)c1 [compound 358]
38 | > 100 nM | CNC(=O)c1cnc(N2CCN(C3CCN(/C(=N\C#N)c4ccc(Cl)cc4)CC3)[C@@H](C)C2)c(Cl)c1 [compound 359]
39 | > 100 nM | CNC(=O)c1cnc(N2CCN(C3CCN(Cc4c(C)cccc4C)CC3)[C@@H](C)C2)c(Cl)c1 [compound 360]
40 | > 100 nM | O=C(NCc1ccc(F)c(F)c1)c1cnc(N2CCN(C3CCN(Cc4ccccc4)CC3)CC2)c(Cl)c1 [compound 362]
41 | > 100 nM | CC[C@H]1CN(c2ncc(C(=O)NC)c3ccccc23)CCN1C1CCN(Cc2ccc(Cl)cc2F)CC1 [compound 363]
42 | > 100 nM | O=C(NCCc1c[nH]c2ccccc12)c1cnc(N2CCN(C3CCN(Cc4ccc(Cl)cc4)CC3)CC2)c(Cl)c1 [compound 364]
43 | > 100 nM | CC[C@H]1CN(c2ncc(C(=O)NCc3ccc(F)c(F)c3)cc2Cl)CCN1C1CCN(C)CC1 [compound 365]
44 | < 25 nM | CC[C@H]1CN(c2ncc(CNC(=O)NC3CC3)cc2Cl)CCN1C1CCN(Cc2ccc(Br)cc2F)CC1 [compound 367]
45 | < 25 nM | CC[C@H]1CN(c2ncc(CNC(=O)NCC(F)(F)F)cc2Cl)CCN1C1CCN(Cc2ccc(Cl)cc2F)CC1 [compound 369]
46 | < 25 nM | CC[C@H]1CN(c2ncc(CNC(=O)NC3CC3)cc2Cl)CCN1C1CCN(Cc2ccc(Cl)cc2F)CC1 [compound 372]
47 | < 25 nM | CC[C@H]1CN(c2ncc(CNC(=O)NC(C)(C)C)cc2Cl)CCN1C1CCN(Cc2ccc(Cl)cc2F)CC1 [compound 373]
48 | < 25 nM | CC[C@H]1CN(c2ncc(CO)cc2Cl)CCN1C1CCN(Cc2ccc(Br)cc2)CC1 [compound 375]
49 | < 25 nM | CC[C@H]1CN(c2ncc(CNS(C)(=O)=O)cc2Cl)CCN1C1CCN(Cc2ccc(Br)cc2F)CC1 [compound 378]

Row | IC50 | SMILES
50 | < 25 nM | CC[C@H]1CN(c2ncc(CNS(C)(=O)=O)cc2Cl)CCN1C1CCN(Cc2ccc(Cl)cc2F)CC1 [compound 380]
51 | < 25 nM | CC[C@H]1CN(c2ncc(CN/C(=N\C#N)NCC(F)(F)F)cc2Cl)CCN1C1CCN(Cc2ccc(Cl)cc2F)CC1 [compound 381]
52 | < 25 nM | CC[C@H]1CN(c2ncc(CO)cc2Cl)CCN1C1CCN(Cc2ccc(Br)cc2F)CC1 [compound 383]
53 | < 25 nM | CCCS(=O)(=O)NCc1cnc(N2CCN(C3CCN(Cc4ccc(Cl)cc4F)CC3)[C@@H](CC)C2)c(Cl)c1 [compound 388]
54 | < 25 nM | CC[C@H]1CN(c2ncc(CN/C(N)=N\C#N)cc2Cl)CCN1C1CCN(Cc2ccc(Cl)cc2F)CC1 [compound 389]
55 | < 25 nM | CC[C@H]1CN(c2ncc(CNC(=O)NC3CCCCC3)cc2Cl)CCN1C1CCN(Cc2ccc(Cl)cc2F)CC1 [compound 390]
56 | < 25 nM | CC[C@H]1CN(c2ncc(CO)cc2Cl)CCN1C1CCN(Cc2ccc(Cl)cc2F)CC1 [compound 392]
57 | < 25 nM | CC[C@H]1CN(c2ncc(CNC(=O)NCC(F)(F)F)cc2Cl)CCN1C1CCN(C(=O)c2ccc(Br)cc2)CC1 [compound 396]
58 | < 25 nM | CC[C@H]1CN(c2ncc(CNC(=O)Nc3ccc(F)c(F)c3)cc2Cl)CCN1C1CCN(Cc2ccc(Cl)cc2)CC1 [compound 400]
59 | < 25 nM | CC[C@H]1CN(c2ncc(CNC(=O)NN)cc2Cl)CCN1C1CCN(Cc2ccc(Cl)cc2F)CC1 [compound 401]
60 | < 25 nM | CC[C@H]1CN(c2ncc(COC(=O)Nc3c(C)noc3C)cc2Cl)CCN1C1CCN(Cc2ccc(Cl)cc2F)CC1 [compound 402]
61 | < 25 nM | CC[C@H]1CN(c2ncc(C(N)=NO)cc2Cl)CCN1C1CCN(Cc2ccc(Cl)cc2F)CC1 [compound 404]
62 | < 25 nM | CC[C@H]1CN(c2ncc(COC(=O)NC(C)C)cc2Cl)CCN1C1CCN(Cc2ccc(Cl)cc2F)CC1 [compound 405]
63 | < 25 nM | CCNCc1cnc(N2CCN(C3CCN(Cc4ccc(Cl)cc4F)CC3)[C@@H](CC)C2)c(Cl)c1 [compound 406]
64 | 25 to 100 nM | CCNC(=O)N(CC)Cc1cnc(N2CCN(C3CCN(Cc4ccc(Cl)cc4F)CC3)[C@@H](CC)C2)c(Cl)c1 [compound 409]
65 | 25 to 100 nM | CC[C@H]1CN(c2ncc(CN)cc2Cl)CCN1C1CCN(Cc2ccc(Cl)cc2)CC1 [compound 413]
